Source: BindingDB's records for doi:10.1016/j.bmcl.2004.05.036 (Abbott Laboratories, 2004)

Assay: Antiviral activity against HIV protease in absence of human serum

Structure (SMILES): CCCCN1C(=O)N(Cc2cccc(C(=N)NO)c2)[C@H](Cc2ccccc2)[C@H](O)CN1S(=O)(=O)c1cccc(OC)c1
- EC50: 30 nM
